Source: ChEMBL document CHEMBL1130487, “Development of a positron emission tomography radiopharmaceutical for imaging thymidine kinase gene expression: Synthesis and in vitro evaluation of 9-{3-[18F] Fluoro-1-hydroxy-2-propoxymethyl guanine” (1997)

What was measured:
[1] = organism: Rattus norvegicus; experiment: Anti proliferation activity determined; Weak effect; assay type: functional
[2] = organism: Rattus norvegicus; experiment: Inhibition of cell growth by compound at a concentration of 10 uM in 9Ltk+ cells; […]; assay type: functional, cell-based
[3] = organism: Rattus norvegicus; experiment: Inhibition of cell growth by compound at a concentration of 100 uM in 9Ltk+ cells; Completely stopped the process; assay type: functional, cell-based
[4] = Inhibition of cell growth by compound at a concentration of 10 uM in 9Ltk+ cells; assay type: functional; conditions: Rattus norvegicus

Q: For `Nc1nc2c(ncn2COC(CO)CO)c(=O)[nH]1`, which Activity [1] is on record?
A: Its Activity is “Weak effect”.

Q: And the inhibition [2]?
A: The inhibition was “Completely stopped the process”.

Q: With `Nc1nc2c(ncn2COCCO)c(=O)[nH]1` as the compound, how does the inhibition [3] read?
A: Its inhibition is “Completely stopped the process”.

Q: For `Nc1nc(O)c2ncn(COC(CO)CF)c2n1` (centres undefined), which inhibition at 10 µM [4] is on record?
A: The inhibition at 10 µM was 50%.
